The values that follow come from paper PMC9352670 (2022).

Molecules are shown by their SMILES.

In this assay the test system is Dm-HS-1 TTC ∆ s.c. (DNA, aptamer, no side-chain at 22 (codon 2 TTC); others as HFNAP: fluorophenyl at 19; allylamine at 25, 37; alcohol at 28, 34, 49; phenol at 31, 46; cyclopentyl at 40; cyclopropyl at 43, 58; imidazole at 52, 55, 61) GAAAGCAGGACTGGAGATCGATTCTGGTGCTGTTGATCTCCGCCATTGTGCTCCTACCCTTCACAGACCGAACTAGAGCTT
As to the kind of experiment: microscale thermophoresis. The following applies: 5 mM KCl, 1 mM MgCl2, 1 mM CaCl2 added to HBS-P+; HBS-P+ buffer, 25 °C. For orientation: In MST a laser heats a spot of the sample, and binding alters the fluorescence response.

Consider `COc1cccc2c1C(=O)c1c(O)c3c(c(O)c1C2=O)C[C@@](O)(C(C)=O)C[C@@H]3O[C@H]1C[C@H](N)[C@H](O)[C@H](C)O1`, for which the Kd came out at 16.2 ± 3.2 nM.

In general, Kd refers to the constant that tells how readily two partners part at equilibrium. A low value points to a tighter complex.
